Results taken from patent US5955464A, “4-anilinoquinazoline derivatives bearing a heteroaryl substituted at the 6-position and possessing anti-cell-proliferation properties” (Zeneca Limited, priority 1994, dated 1999).

Experiments:
[1] = target: T1, EGF receptor tyrosine kinase (Homo sapiens, UniProt P00533); test: in vitro assay of inhibition of the enzyme EGF receptor tyrosine kinase (Test (a)); type: biochemical; conditions: EGF receptor tyrosine kinase from A-431 cells
T1 construct: Receptor tyrosine kinase was obtained in partially purified form from A-431 cells; endogenous in cells; host or cells: A-431 cells (human vulval carcinoma), Triton X-100-solubilised membrane fraction
T1 sequence (P00533 25-1210): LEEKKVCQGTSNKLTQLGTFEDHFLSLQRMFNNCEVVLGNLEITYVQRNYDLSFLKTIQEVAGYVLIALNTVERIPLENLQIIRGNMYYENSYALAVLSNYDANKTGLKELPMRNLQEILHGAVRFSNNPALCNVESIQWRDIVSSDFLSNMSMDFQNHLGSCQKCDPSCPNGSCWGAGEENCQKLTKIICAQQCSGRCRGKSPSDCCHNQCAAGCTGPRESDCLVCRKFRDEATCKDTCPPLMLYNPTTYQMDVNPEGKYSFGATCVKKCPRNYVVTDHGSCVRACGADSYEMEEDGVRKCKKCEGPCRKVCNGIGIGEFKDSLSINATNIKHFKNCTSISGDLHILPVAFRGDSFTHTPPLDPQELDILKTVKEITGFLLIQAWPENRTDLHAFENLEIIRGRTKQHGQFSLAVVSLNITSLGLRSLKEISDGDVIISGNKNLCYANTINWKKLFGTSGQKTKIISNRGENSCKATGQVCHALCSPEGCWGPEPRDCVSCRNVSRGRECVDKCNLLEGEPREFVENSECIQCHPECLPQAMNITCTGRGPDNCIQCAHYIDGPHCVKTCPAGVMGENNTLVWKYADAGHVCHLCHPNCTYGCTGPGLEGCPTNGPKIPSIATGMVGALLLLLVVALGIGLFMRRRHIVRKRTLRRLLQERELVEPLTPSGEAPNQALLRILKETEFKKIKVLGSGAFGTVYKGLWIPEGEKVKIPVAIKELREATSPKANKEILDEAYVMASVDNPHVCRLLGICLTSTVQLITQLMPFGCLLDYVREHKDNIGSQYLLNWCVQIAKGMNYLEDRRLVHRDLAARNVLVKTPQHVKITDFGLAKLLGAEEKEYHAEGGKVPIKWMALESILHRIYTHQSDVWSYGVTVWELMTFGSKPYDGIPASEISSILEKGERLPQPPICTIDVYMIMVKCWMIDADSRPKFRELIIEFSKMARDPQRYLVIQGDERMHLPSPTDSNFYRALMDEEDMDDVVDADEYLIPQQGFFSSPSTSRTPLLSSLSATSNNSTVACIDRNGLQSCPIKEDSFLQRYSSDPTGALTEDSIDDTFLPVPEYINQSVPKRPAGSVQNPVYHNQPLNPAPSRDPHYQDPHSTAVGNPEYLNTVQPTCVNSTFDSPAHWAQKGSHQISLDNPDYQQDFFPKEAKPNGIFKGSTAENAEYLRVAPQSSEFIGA
T1 sequence (P01133 971-1023 partner limits assumed): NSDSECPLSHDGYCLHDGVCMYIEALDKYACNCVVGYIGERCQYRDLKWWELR
Description: (a) An in vitro assay which determines the ability of a test compound to inhibit the enzyme EGF receptor tyrosine kinase. Receptor tyrosine kinase was obtained in partially purified form from A-431 cells (derived from human vulval carcinoma) by the procedures described below which are related to those described by Carpenter et al., J. Biol. Chem., 1979, 254, 4884, Cohen et al, J. Biol. Chem., 1982, 257, 1523 and by Braun et al., J. Biol. Chem., 1984, 259, 2051.
A-431 cells were grown to confluence using Dulbecco's modified Eagle's medium (DMEM) containing 5% fetal calf serum (FCS). The obtained cells were homogenised in a hypotonic borate/EDTA buffer at pH 10.1. The homogenate was centrifuged at 400 g for 10 minutes at 0-4° C. The supernatant was centrifuged at 25,000 g for 30 minutes at 0-4° C. […]
The test compound/EGF mixture solution (5 μl) was added to the test enzyme solution (10 μl) and the mixture was incubated at 0-4° C. for 30 minutes. […] Radioactivity present in the filter paper was measured using a liquid scintillation counter (Sequence A). […]
Receptor tyrosine kinase inhibition was calculated as follows: [formula]
The extent of inhibition was then determined at a range of concentrations of test compound to give an IC50 value.

KB cells = test: in vitro assay of inhibition of EGF-stimulated growth of the human naso-pharyngeal cancer cell line KB (Test (b)); type: cell-based; conditions: 72 h, EGF 10 ng/ml, 3 days
Description: (b) An in vitro assay which determines the ability of a test compound to inhibit the EGF-stimulated growth of the human naso-pharyngeal cancer cell line KB. KB cells were seeded into wells at a density of 1×10^4 -1.5×10^4 cells per well and grown for 24 hours in DMEM supplemented with 5% FCS (charcoal-stripped). Cell growth was determined after incubation for 3 days by the extent of metabolism of MTT tetrazolium dye to furnish a bluish colour. Cell growth was then determined in the presence of EGF (10 ng/ml) or in the presence of EGF (10 ng/ml) and a test compound at a range of concentrations. An IC50 value could then be calculated.

liver hepatocyte growth = test: in vivo assay in male rats of inhibition of TGFα-stimulated liver hepatocyte growth (Test (c)); conditions: Rattus norvegicus, usually oral, inhibition of BrdU uptake, approximate ED50
Description: (c) An in vivo assay in a group of male rats which determines the ability of a test compound (usually administered orally as a ball-milled suspension in 0.5% polysorbate) to inhibit the stimulation of liver hepatocyte growth caused by the administration of the growth factor TGFα (400 μg/kg subcutaneously, usually dosed twice, 3 and 7 hours respectively after the administration of the test compound).
In a control group of rats, the administration of TGFα causes on average a 5-fold stimulation of liver hepatocyte growth.
Cell-growth in the control and test animals is determined as follows:
On the morning of the day after the dosing of the test compound (or 0.5% polysorbate in the control group), the animals are dosed with bromodeoxyuridine (BrdU; 100 mg/kg intraperitoneally). The animals are killed four hours later and the livers are excised. […] Further tests were carried out using a range of doses of the test compounds to allow the calculation of an approximate ED50 value for the inhibition of liver hepatocyte proliferation as determined by inhibition of the uptake of BrdU.

[2] = tested on: xenografts of the human vulval epidermoid carcinoma cell line A431; test: in vivo assay in athymic nude mice of inhibition of growth of A431 xenografts (Test (d)); design: species or system athymic nude mice (human A431 xenograft); conditions: 200 mg/kg/day, once daily, usually oral
Description: (d) An in-vivo assay in a group of athymic nude mice (strain ONU:Alpk) which determines the ability of a test compound (usually administered orally as a ball-milled suspension in 0.5% polysorbate) to inhibit the growth of xenografts of the human vulval epidermoid carcinoma cell line A431.
A431 cells were maintained in culture in DMEM supplemented with 5% FCS and 2 mM glutamine. Freshly cultured cells were harvested by trypsinization and injected subcutaneously (10 million cells/0.1 ml/mouse) into both flanks of a number of donor nude mice. When sufficient tumour material was available (after approximately 9 to 14 days), fragments of tumour tissue were transplanted into the flanks of recipient nude mice (test day 0). On the eighth day after transplantation (test day 7) groups of 8 to 10 mice with similar-sized tumours were selected and dosing of the test compound was commenced. Once-daily dosing of test compound was continued for a total of 13 days (test days 7 to 19 inclusive). In some studies the dosing of the test compound was continued beyond test day 19, for example to test day 26. In each case, on the following day the animals were killed and final tumour volume was calculated from measurements of the length and width of the tumours. Results were calculated as a percentage inhibition of tumour volume relative to untreated controls.

[3] = tested on: human mammary carcinoma which expresses EGF receptor tyrosine kinase; conditions: athymic nude mice; Toi et al., 1990; cited from earlier work
[4] = tested on: another carcinoma which does not express EGF receptor tyrosine kinase; conditions: athymic nude mice; Toi et al., 1990; cited from earlier work
[5] = tested on: EGF receptor tyrosine kinase; conditions: in words; Fry et al., Science, 1994, 265, 1093; cited from earlier work

Structure (SMILES): Cc1cccc(Nc2ncnc3ccc(-n4ccnc4)cc23)c1 [4-(3-methylanilino)-6-(1-imidazolyl)quinazoline]
- IC50 [1]: 26 nM
- IC50 (KB cells): 510 nM
- ED50 (liver hepatocyte growth): < 12.5 mg/kg
- inhibition in Test (d) (percentage inhibition of tumour volume) [2]: 63%

Structure (SMILES): O=CN/C=C/c1cc(O)ccc1O [erbstatin]
- growth of transplanted human mammary carcinoma expressing EGF receptor tyrosine kinase [3]: specifically attenuates the growth
- growth of another carcinoma not expressing EGF receptor tyrosine kinase [4]: without effect on the growth

Structure (SMILES): COc1cc2ncnc(Nc3cccc(Br)c3)c2cc1OC [4-(3-bromoanilino)-6,7-dimethoxyquinazoline]
- inhibition of EGF receptor tyrosine kinase [5]: highly potent inhibitor
